Measurements as given in patent US4272437A, “Antibacterial agents, and 4-thio azetidinone intermediates” (priority 1979, dated 1981).
Values after ≈ are worked out from the molar mass of the structure shown. Read-outs that look alike come from different tables or passages of the source.

Assays:
[1] = test system: Staph. aureus (Pen-Res) A-9606; assay: MIC, tube dilution, Staphylococcus aureus A9606 (Pen-Res); assay type: cell-based; details: overnight 37° C.; for MIC: Staphylococcus aureus
From the text: (§1) Representative compounds of the present invention were subjected to in vitro antibiotic screening against a variety of microorganisms.

[2] = test system: Klebsiella species A20468; assay: MIC, tube dilution, Klebsiella species A20468; assay type: cell-based; details: Klebsiella species (K. pneumoniae) A20468, overnight 37° C.; for MIC: read-out: Minimum Inhibitory Concentration (M.I.C.)
From the text: as §1

Str. pyogenes A-9604 = assay: MIC, tube dilution, Streptococcus pyogenes A9604; assay type: cell-based; details: overnight 37° C., Nutrient Broth; for MIC: Streptococcus pyogenes, A9604, Str. pyogenes A9604, read-out: Minimum Inhibitory Concentration (M.I.C.)
From the text: as §1

[3] = test system: Staph. aureus A-9537 and 50% serum; assay: MIC, tube dilution, Staph. aureus A9537 + 50% serum; assay type: cell-based, Staphylococcus aureus; details: overnight 37° C.; for MIC: Staphylococcus aureus, read-out: Minimum Inhibitory Concentration (M.I.C.)
From the text: as §1

Ent. cloacae A-9659 = assay: MIC, tube dilution, Enterobacter cloacae A9659; assay type: cell-based; details: overnight 37° C.; for MIC: Enterobacter cloacae, A9659, Enterobacter cloacae A9659, read-out: Minimum Inhibitory Concentration (M.I.C.); for Minimum Inhibitory Concentration (M.I.C.): Enterobacter cloacae A9659
From the text: as §1

Ps. aeruginosa A-9843A = assay: MIC, tube dilution, Pseudomonas aeruginosa A9843A; assay type: cell-based; details: overnight 37° C.; for MIC: Pseudomonas aeruginosa, A9843A, read-out: Minimum Inhibitory Concentration (M.I.C.), Pseudomonas aeruginosa A9843A
From the text: as §1

Pr. morganii A-15153 = assay: MIC, tube dilution, Proteus morganii A15153; assay type: cell-based; details: overnight 37° C.; for MIC: Morganella morganii, A15153, Proteus morganii A15153, read-out: Minimum Inhibitory Concentration (M.I.C.); for Minimum Inhibitory Concentration (M.I.C.): Proteus morganii A15153
From the text: as §1

Staph. aureus A-9537 = assay: MIC, tube dilution, Staphylococcus aureus A9537; assay type: cell-based; details: overnight 37° C., Nutrient Broth; for MIC: Staphylococcus aureus, A9537, Staph. aureus A9537, read-out: Minimum Inhibitory Concentration (M.I.C.); for Minimum Inhibitory Concentration (M.I.C.): Staph. aureus A9537
From the text: as §1

[4] = test system: Providencia stuartii A21205; assay: MIC, tube dilution, Providencia stuartii (Pr. rettgeri) A21205; assay type: cell-based; details: for MIC: Providencia stuartii
From the text: as §1

Pr. vulgaris A-9716 = assay: MIC, tube dilution, Proteus vulgaris / Proteus mirabilis A9716; assay type: cell-based, Proteus vulgaris (name changed to Proteus mirabilis); details: overnight 37° C.; for MIC: Proteus vulgaris
From the text: as §1

E. coli A-15119 = assay: MIC, tube dilution, Escherichia coli A15119; assay type: cell-based; details: overnight 37° C.; for MIC: Escherichia coli, A15119, E. coli A15119, read-out: Minimum Inhibitory Concentration (M.I.C.); for Minimum Inhibitory Concentration (M.I.C.): E. coli A15119
From the text: as §1

Ser. marcescens A-20019 = assay: MIC, tube dilution, Serratia marcescens A20019; assay type: cell-based; details: overnight 37° C.; for MIC: Serratia marcescens, A20019, Serratia marcescens A20019, read-out: Minimum Inhibitory Concentration (M.I.C.); for Minimum Inhibitory Concentration (M.I.C.): Serratia marcescens A20019
From the text: as §1

K. pneumoniae A-15130 = assay: MIC, tube dilution, Klebsiella pneumoniae A15130; assay type: cell-based; details: overnight 37° C.; for MIC: Klebsiella pneumoniae, A15130, K. pneumoniae A15130, read-out: Minimum Inhibitory Concentration (M.I.C.); for Minimum Inhibitory Concentration (M.I.C.): K. pneumoniae A15130
From the text: as §1

Ps. aeruginosa A-21213 = assay: MIC, tube dilution, Pseudomonas aeruginosa A21213; assay type: cell-based; details: Pseudomonas aeruginosa A21213, overnight 37° C.; for MIC: read-out: Minimum Inhibitory Concentration (M.I.C.)
From the text: as §1

[5] = test system: Staph. aureus (Meth-Res) A-15097; assay: MIC, tube dilution, Staphylococcus aureus A15097 (Meth-Res); assay type: cell-based; details: overnight 37° C.; for MIC: Staphylococcus aureus, read-out: Minimum Inhibitory Concentration (M.I.C.), Staph. aureus A15097 (Meth-Res)
From the text: as §1

Ent. cloacae A-9656 = assay: MIC, tube dilution, Enterobacter cloacae A9656; assay type: cell-based; details: overnight 37° C.; for MIC: read-out: Minimum Inhibitory Concentration (M.I.C.)
From the text: as §1

Str. pneumoniae A-9585 = assay: MIC, tube dilution, Streptococcus pneumoniae A9585; assay type: cell-based; details: overnight 37° C., Nutrient Broth; for MIC: Streptococcus pneumoniae, A9585, Str. pneumoniae A9585, read-out: Minimum Inhibitory Concentration (M.I.C.); for Minimum Inhibitory Concentration (M.I.C.): Str. pneumoniae A9585
From the text: as §1

Pr. mirabilis A-9900 = assay: MIC, tube dilution, Proteus mirabilis A9900; assay type: cell-based; details: overnight 37° C.; for MIC: Proteus mirabilis, A9900, Proteus mirabilis A9900, read-out: Minimum Inhibitory Concentration (M.I.C.)
From the text: as §1

E. coli A-20341-1 = assay: MIC, tube dilution, Escherichia coli A20341-1; assay type: cell-based; details: E. coli A20341-1, overnight 37° C.; for MIC: Escherichia coli, A203411, read-out: Minimum Inhibitory Concentration (M.I.C.)
From the text: as §1

Str. faecalis A-20688 = assay: MIC, tube dilution, Streptococcus faecalis A20688; assay type: cell-based; details: overnight 37° C.; for MIC: Enterococcus faecalis, A20688, Str. faecalis A20688, read-out: Minimum Inhibitory Concentration (M.I.C.)
From the text: as §1

[6] = Staph. aureus A9606 (Pen-Res), read-out: Minimum Inhibitory Concentration (M.I.C.)
[7] = A21205, Providencia stuartii (Pr. rettgeri) A21205, overnight 37° C., read-out: Minimum Inhibitory Concentration (M.I.C.)
[8] = A9716, Proteus vulgaris / Proteus mirabilis A9716, read-out: Minimum Inhibitory Concentration (M.I.C.)
[9] = read-out: Minimum Inhibitory Concentration (M.I.C.), Staph. aureus A9606 (Pen-Res)
[10] = A21205, read-out: Minimum Inhibitory Concentration (M.I.C.)
[11] = A9716, read-out: Minimum Inhibitory Concentration (M.I.C.), Proteus vulgaris / Proteus mirabilis A9716

| SMILES | MIC [1, 6] | MIC [2] | MIC (Str. pyogenes A-9604) | MIC [3] | MIC (Ent. cloacae A-9659) | MIC (Ps. aeruginosa A-9843A) | MIC (Pr. morganii A-15153) | MIC (Staph. aureus A-9537) | MIC [4, 7] | MIC (Pr. vulgaris A-9716; [8]) | MIC (E. coli A-15119) | MIC (Ser. marcescens A-20019) | MIC (K. pneumoniae A-15130) | MIC (Ps. aeruginosa A-21213) | MIC [5] | MIC (Str. pneumoniae A-9585) | MIC (Pr. mirabilis A-9900) | MIC (E. coli A-20341-1) | MIC (Str. faecalis A-20688) | MIC (Ent. cloacae A-9656; Enterobacter cloacae A9656) | also measured |
| --- | --- | --- | --- | --- | --- | --- | --- | --- | --- | --- | --- | --- | --- | --- | --- | --- | --- | --- | --- | --- | --- |
| O=C(O)C1=C(Cc2cccs2)SC2CC(=O)N12 (stereo not drawn) [Preparation 8, 2-(2'-Thienyl)methyl-penem-3-carboxylic Acid] | 4 µg/mL (≈ 15 µM) | > 125 µg/mL | 0.03 µg/mL (≈ 0.112 µM) | > 63 µg/mL | 16 µg/mL (≈ 59.9 µM) | > 125 µg/mL | 1 µg/mL (≈ 3.74 µM) | < 0.008 µg/mL | 1 µg/mL (≈ 3.74 µM) | 1 µg/mL (≈ 3.74 µM) | 1 µg/mL (≈ 3.74 µM) | 32 µg/mL (≈ 120 µM) | 32 µg/mL (≈ 120 µM) | > 125 µg/mL | > 125 µg/mL | 0.016 µg/mL (≈ 0.0599 µM) | 0.5 µg/mL (≈ 1.87 µM) | > 125 µg/mL | 32 µg/mL (≈ 120 µM) |  | MIC (Ent. cloacae A-9656; Enterobacter cloacae, A9656, Enterobacter cloacae A9656): 16 µg/mL (≈ 59.9 µM) |
| O=C(O)C1=C(CCCCN2C(=O)c3ccccc3C2=O)SC2CC(=O)N12 (stereo not drawn) [Example 43, 2-(4'-Phthalimido-1'-butyl)penem-3-carboxylic Acid] | 16 µg/mL (≈ 43 µM) | > 125 µg/mL | 0.25 µg/mL (≈ 0.671 µM) | 63 µg/mL | > 125 µg/mL | > 125 µg/mL | 32 µg/mL (≈ 85.9 µM) | 0.03 µg/mL (≈ 0.0806 µM) | 63 µg/mL (≈ 169 µM) | 16 µg/mL (≈ 43 µM) | 63 µg/mL (≈ 169 µM) | 16 µg/mL (≈ 43 µM) | > 125 µg/mL | > 125 µg/mL | > 125 µg/mL | 0.016 µg/mL (≈ 0.043 µM) | 32 µg/mL (≈ 85.9 µM) | > 125 µg/mL | 16 µg/mL (≈ 43 µM) | 125 µg/mL (≈ 336 µM) |  |
| O=C(O)C1=C(COc2ccccc2)S[C@@H]2CC(=O)N12 [Example 11, 2-Phenoxymethylpenem-3-carboxylic Acid] |  |  |  |  |  |  |  |  |  |  |  |  |  |  |  |  |  |  |  |  | Minimum Inhibitory Concentration (M.I.C.) ([1]; Staph. aureus A9606 (Pen-Res)): .5 µg/mL; Minimum Inhibitory Concentration (M.I.C.) [2]: > 125 µg/mL; Minimum Inhibitory Concentration (M.I.C.) (Str. pyogenes A-9604; Str. pyogenes A9604): .5 µg/mL; Minimum Inhibitory Concentration (M.I.C.) [3]: 63 µg/mL; Minimum Inhibitory Concentration (M.I.C.) (Ent. cloacae A-9659): > 125 µg/mL; Minimum Inhibitory Concentration (M.I.C.) (Ps. aeruginosa A-9843A; Pseudomonas aeruginosa A9843A): > 125 µg/mL; Minimum Inhibitory Concentration (M.I.C.) (Pr. morganii A-15153): 16 µg/mL; Minimum Inhibitory Concentration (M.I.C.) (Staph. aureus A-9537): 1 µg/mL; Minimum Inhibitory Concentration (M.I.C.) ([4]; Providencia stuartii (Pr. rettgeri) A21205, overnight 37° C.): 63 µg/mL; Minimum Inhibitory Concentration (M.I.C.) (Pr. vulgaris A-9716; Proteus vulgaris / Proteus mirabilis A9716): 16 µg/mL; Minimum Inhibitory Concentration (M.I.C.) (E. coli A-15119): 63 µg/mL; Minimum Inhibitory Concentration (M.I.C.) (Ser. marcescens A-20019): > 125 µg/mL; Minimum Inhibitory Concentration (M.I.C.) (K. pneumoniae A-15130): > 125 µg/mL; Minimum Inhibitory Concentration (M.I.C.) (Ps. aeruginosa A-21213): > 125 µg/mL; Minimum Inhibitory Concentration (M.I.C.) ([5]; Staph. aureus A15097 (Meth-Res)): 1 µg/mL; Minimum Inhibitory Concentration (M.I.C.) (Ent. cloacae A-9656; Enterobacter cloacae A9656): > 125 µg/mL; Minimum Inhibitory Concentration (M.I.C.) (Str. pneumoniae A-9585): .5 µg/mL; Minimum Inhibitory Concentration (M.I.C.) (Pr. mirabilis A-9900; Proteus mirabilis A9900): 16 µg/mL; Minimum Inhibitory Concentration (M.I.C.) (E. coli A-20341-1): > 125 µg/mL; Minimum Inhibitory Concentration (M.I.C.) (Str. faecalis A-20688; Str. faecalis A20688): 63 µg/mL |
| CC(=O)OCC1=C(C(=O)[O-])N2C(=O)C[C@H]2S1.[Na+] [Preparation 5, Sodium 2-(Acetoxymethyl)penem-3-carboxylate] |  | > 125 µg/mL |  | > 63 µg/mL | > 125 µg/mL | > 125 µg/mL | > 125 µg/mL | 125 µg/mL |  |  | > 125 µg/mL | > 125 µg/mL | > 125 µg/mL | > 125 µg/mL | > 125 µg/mL | > 8 µg/mL | > 125 µg/mL | > 125 µg/mL | > 125 µg/mL | > 125 µg/mL | MIC [1, 9]: > 125 µg/mL; Minimum Inhibitory Concentration (M.I.C.) (Staph. aureus A-9537): > 125 µg/mL; MIC [4, 10]: > 125 µg/mL; MIC (Pr. vulgaris A-9716; [11]): > 125 µg/mL; Minimum Inhibitory Concentration (M.I.C.) (Str. pneumoniae A-9585): 16 µg/mL |
| O=C([O-])C1=C(c2ccccc2)S[C@@H]2CC(=O)N12.[Na+] [Preparation 7, Sodium 2-Phenylpenem-3-carboxylate] |  | > 125 µg/mL |  | > 63 µg/mL | 32 µg/mL | > 125 µg/mL | 32 µg/mL | 2 µg/mL |  |  | 4 µg/mL | 32 µg/mL | 63 µg/mL | > 125 µg/mL | 63 µg/mL |  | 4 µg/mL | > 125 µg/mL | 16 µg/mL | 125 µg/mL | Minimum Inhibitory Concentration (M.I.C.) ([1]; Staph. aureus A9606 (Pen-Res)): 16 µg/mL; MIC [1, 9]: 8 µg/mL; Minimum Inhibitory Concentration (M.I.C.) (Ent. cloacae A-9659): 63 µg/mL; Minimum Inhibitory Concentration (M.I.C.) (Pr. morganii A-15153): 63 µg/mL; MIC [4, 10]: 16 µg/mL; MIC (Pr. vulgaris A-9716; [11]): 4 µg/mL; Minimum Inhibitory Concentration (M.I.C.) (E. coli A-15119): 8 µg/mL; Minimum Inhibitory Concentration (M.I.C.) (Ser. marcescens A-20019): 63 µg/mL; Minimum Inhibitory Concentration (M.I.C.) (K. pneumoniae A-15130): 125 µg/mL |
